Results taken from patent publication US12389905B2, “Synergistic mixture of plant defense inductors” (LIDA PLANT RESEARCH S.L., priority 2018, dated 2025).
Where “and” joins values, the source holds several entries; their conditions need not be identical. Identical values can stand only once. Like-named read-outs stand apart in the source and are kept apart here.

How the values were obtained:
Type in all cases: in vivo
[1] = system: PR1 (PATHOGENESIS-RELATED PROTEIN 1) gene; test: PR1 gene expression (qPCR) in sprayed Arabidopsis thaliana plants
[2] = system: PDF1.2 (PLANT DEFENSIN 1.2) gene; test: PDF1.2 gene expression (qPCR) in sprayed Arabidopsis thaliana plants
Method: Wild-type Arabidopsis thaliana Col-0 seeds were grown in pots under a 16 hours day/8 hours night (long day) photoperiod, with a daytime temperature of 22° C., a night temperature of 20° C., and a relative humidity of 65%. Plants were sprayed with each inductor dissolved in water (inductors alone or in combination). 24 and 48 hours after treatment (hours post treatment, hpt), tissue samples were harvested and gene expression analysis of specific defense marker genes was performed, through quantitative PCR technology (qPCR).
The genes involved in plant defense analyzed were one or more of the following 5: • PR1 (PATHOGENESIS-RELATED PROTEIN 1). AGI code: AT2G14610 • PDF1.2 (PLANT DEFENSIN 1.2). AGI code: AT5G44420 • PR2 (PATHOGENESIS-RELATED PROTEIN 2; BETA-1,3-GLUCANASE 2). AGI code: AT3G57260 • PR5 (PATHOGENESIS-RELATED GENE 5). AGI code: AT1G75040 • ICS1 (ISO[…] 1). AGI code: AT1G74710
UBC21 (UBIQUITIN-CONJUGATING ENZYME 21; AGI code: AT5G25760) was the normalization (or housekeeping) gene used.
PR1 (Salicylic acid-signaling pathway marker gene) and PDF1.2 (Jasmonic acid-signaling pathway marker gene) are important marker genes of plant defense system, because they are necessary to plant defense mechanisms activation.
In order to evaluate if there is a synergistic effect between different possible combinations, Limpel/Colby's formula was used. This formula is used to calculated the expected activity of combinations containing two active ingredients, A and B: Expected (E)=A+B−(A×B/100) Wherein, • A=observed gene activation of active component A at the same concentration as used in the mixture • B=observed gene activation of active component B at the same concentration as used in the mixture
When the activity found experimentally (observed) is greater than the value of E, said activity should be considered as being a synergistic effect, and Synergy Factor (F) is >1: Synergy Factor (F)=Observed activity/Expected activity (E)
In the following: • OV: Observed gene activation value • CEV: Colby expected gene activation value with the mixture [CEV=A+B−(A×B/100)] Synergy Factor (F)=OV(A+B)/CEV(A+B) • hpt: hours post treatment.

[3] = system: Pseudomonas cannbina pv. alisalensis on Chinese cabbage
[4] = system: Pseudomonas syringae pv. Lachrymans on cucumber; test: Bacterial spot on cucumber, greenhouse disease control; settings: spray, 100 ppm
Method: (§1) The experiments were carried out under controlled greenhouse conditions. The effects of temperature, humidity and light conditions in the greenhouse chambers were adjusted according to host plants and pathogens needs.
(§2) The efficacy or disease control value (W) was calculated according to Abbott's formula: W=(1−x/y)×100 wherein • x=percentage of fungal or bacterial infection in treated plants • y=percentage of fungal or bacterial infection in untreated control plants
(§3) An efficacy of 0 means the infection level of the treated plants corresponds to that of the untreated control plants; and efficacy of 100 means that the treated plants are not infected.
(§4) In order to evaluate if there is a synergistic effect between different possible combinations, Limpel/Colby's formula was used.
(§5) Synergy Factor (F)=OV(A+B)/CEV(A+B) 1. Podosphaera xanthii on Cucumber
1.2-leaf stage cucumber plants (cv. Suzunari-suyo), grown in pots under controlled conditions, were treated by spraying of the leaves with the mixture in question, dispersed in an aqueous solution. After 2 days, plants were inoculated and infected with an aqueous suspension of Pseudomonas syringae pv. Lachrymans (1×10^8 cfu/ml), and they were kept in a growth chamber at 25° C. and 90% RH. 7 days after pathogen inoculation, infection levels were assessed and percentages of disease control and expected values were calculated according to Abbott's and Colby's formulas, respectively.

[5] = system: Pyricularia oryzae on rice; settings: soil drench
[6] = system: Podosphaera xanthii on cucumber; test: Powdery mildew on cucumber, greenhouse disease control
Method: as §1, §2, §3, §4, §5
1.2-leaf stage cucumber plants (cv. Suzunari-suyo), grown in pots under controlled conditions, were treated by spraying of the leaves or by soil drenching with the mixture in question, dispersed in an aqueous solution. Plants were kept in a growth chamber at 25° C. and 80% RH. After 7 days, plants were inoculated and infected with a spore suspension of Podosphaera xanthii, and, 10 days after pathogen inoculation, infection levels were assessed and percentages of disease control and expected values were calculated according to Abbott's and Colby's formulas, respectively.

[7] = system: Phakopsora pachyrhizi on soybean; test: Asian rust on soybean, greenhouse disease control; settings: B alone 100 ppm, leaf spray
Method: as §1, §2, §3
In order to evaluate if there is a synergistic effect between different possible combinations, Limpel/Colby's formula was used. This formula is used to calculated the expected disease control value of combinations containing two active ingredients, A and B: Expected (E)=A+B−(A×B/100) wherein, • A=observed disease control value of component A, at the same concentration as used in the mixture • B=observed disease control value of component B, at the same concentration as used in the mixture
When the disease control value found experimentally (observed) with the combination is greater than the value of E, said activity should be considered as being a synergistic effect, and Synergy Factor (F) is >1: Synergy Factor (F)=Observed disease control value/Expected disease control value (E)
As above, in the following Tables: • OV: Observed control value • CEV: Colby expected control value with the mixture [CEV=A+B−(A×B/100)] Synergy Factor (F)=OV(A+B)/CEV(A+B) 1. Podosphaera xanthii on Cucumber
1.5-leaf stage soybean plants (cv. Tsurunoko-daizu), grown in pots under controlled conditions, were treated by spraying of the leaves with the mixture in question, dispersed in an aqueous solution. After 7 days, plants were inoculated and infected with a spore suspension of Phakopsora pachyrhizi(1×10^6 uredospores/ml), and they were kept in a growth chamber at 25° C. and 90% RH. 10 days after pathogen inoculation, infection levels were assessed and percentages of disease control and expected values were calculated according to Abbott's and Colby's formulas, respectively.

[8] = system: Colletotrichum orbiculare on cucumber; test: Anthracnose on cucumber, greenhouse disease control; settings: spray; 100 ppm
[9] = Test 3 (soil drench treatment), 100 ppm
[10] = Combinations with Chitooligosaccharides
[11] = Test 4 (spray treatment), 100 ppm

## 2-amino-3,5-dichlorobenzoic acid (3,5-dichloroanthranilic acid)
[1]; 25 ppm, 24 hpt
  PR1 gene activation OV A or B (single component): 4.61 n-fold
[1]; 25 ppm, 48 hpt
  PR1 gene activation OV A or B (single component): 4.14 n-fold
[2]; 25 ppm, 48 hpt
  PDF1.2 gene activation OV A or B (single component): 5.70 n-fold

## O=C(O)CCCCCCCC(=O)O [Azelaic acid, azelaic acid]
[2]; 200 ppm, 24 hpt
  PDF1.2 gene activation OV A or B (single component): 331.01 n-fold
[2]; 200 ppm, 48 hpt
  PDF1.2 gene activation OV A or B (single component): 87.56 n-fold

## O=C(O)c1ccccc1O [Salicylic acid, salicylic acid]
[1]; 100 ppm, 24 hpt
  PR1 gene activation OV A or B (single component): 87.08 n-fold
[1]; 100 ppm, 48 hpt
  PR1 gene activation OV A or B (single component): 58.77 n-fold
[2]; 100 ppm, 24 hpt
  PDF1.2 gene activation OV A or B (single component): 12.69 n-fold
[2]; 100 ppm, 48 hpt
  PDF1.2 gene activation OV A or B (single component): 7.80 n-fold

## Flagellin
[1]; 2.3 ppm, 24 hpt
  PR1 gene activation OV A or B (single component): 2.05 n-fold
[1]; 2.3 ppm, 48 hpt
  PR1 gene activation OV A or B (single component): 5.89 n-fold
[2]; 2.3 ppm, 24 hpt
  PDF1.2 gene activation OV A or B (single component): 1.44 n-fold
[2]; 2.3 ppm, 48 hpt
  PDF1.2 gene activation OV A or B (single component): 0.94 n-fold

## C=CCOC1=NS(=O)(=O)c2ccccc21 [Probenazole]
[3]; 100 ppm
  Percentage of disease control OV A or B (single component): 25%
[3]; in vivo
  Percentage of disease control B: 25%
[4]; Test 2
  Percentage of disease control OV A or B (single component): 45%
[4]; Test 3
  Percentage of disease control OV A or B (single component): 45%
[5]; Test 3, B alone 100 ppm
  Percentage of disease control B: 71%
[5]; Test 4, B alone 100 ppm
  Percentage of disease control B: 71%
[1]; 100 ppm, 48 hpt
  PR1 gene activation OV A or B (single component): 102.9 n-fold and 102.90 n-fold
[6]; [9]
  Percentage of disease control OV A or B (single component): 0%
[7]; [10]
  Percentage of disease control B: 7%
[7]; Combinations with Laminarin
  Percentage of disease control B: 7%

## O=C(O)c1cc(Cl)nc(Cl)c1 [2,6-Dichloroisonicotinic acid, 2,6-dichloro-isonicotinic acid]
[3]; 300 ppm
  Percentage of disease control OV A or B (single component): 83%
[3]; in vivo
  Percentage of disease control B: 83%
[1]; 75 ppm, 24 hpt
  PR1 gene activation OV A or B (single component): 15.45 n-fold
[1]; 75 ppm, 48 hpt
  PR1 gene activation OV A or B (single component): 26.64 n-fold
[2]; 75 ppm, 24 hpt
  PDF1.2 gene activation OV A or B (single component): 5.13 n-fold
[2]; 75 ppm, 48 hpt
  PDF1.2 gene activation OV A or B (single component): 1.68 n-fold

## CC(N)CC(=O)O (stereo not drawn) [Beta-Aminobutyric acid, beta-aminobutyric acid]
[3]; in vivo
  Percentage of disease control B: 46%
[5]; Test 3, B alone 300 ppm
  Percentage of disease control B: 0%
[1]; 100 ppm, 24 hpt
  PR1 gene activation OV A or B (single component): 2.53 n-fold
[1]; 100 ppm, 48 hpt
  PR1 gene activation OV A or B (single component): 8.50 n-fold
[2]; 100 ppm, 48 hpt
  PDF1.2 gene activation OV A or B (single component): 4.37 n-fold
[6]; Test 4 (spray treatment), 300 ppm
  Percentage of disease control OV A or B (single component): 20%
[7]; [10]
  Percentage of disease control B: 0%

## CSC(=O)c1cccc2nnsc12 [Acibenzolar-S-methyl, acibenzolar-S-methyl]
[3]; Combinations with Carrageenan, Test 1, B alone 100 ppm, leaf spray
  Percentage of disease control B: 85%
[3]; Combinations with Chitooligosaccharides, Test 2, B alone 4 ppm, leaf spray
  Percentage of disease control B: 5%
[3]; Combinations with Chitooligosaccharides, Test 2, B alone 10 ppm, leaf spray
  Percentage of disease control B: 18%
[3]; Combinations with Chitooligosaccharides, Test 2, B alone 20 ppm, leaf spray
  Percentage of disease control B: 12%
[3]; Combinations with Chitooligosaccharides, Test 2, B alone 40 ppm, leaf spray
  Percentage of disease control B: 84%
[3]; Combinations with Chitooligosaccharides, Test 2, B alone 100 ppm, leaf spray
  Percentage of disease control B: 89%
[3]; Combinations with Chitooligosaccharides, Test 3, B alone 10 ppm, leaf spray
  Percentage of disease control B: 35%
[3]; Combinations with Chitooligosaccharides, Test 3, B alone 20 ppm, leaf spray
  Percentage of disease control B: 17%
[3]; Combinations with Chitooligosaccharides, Test 3, B alone 40 ppm, leaf spray
  Percentage of disease control B: 95%
[3]; Combinations with Chitooligosaccharides, Test 3, B alone 100 ppm, leaf spray
  Percentage of disease control B: 98%
[4]; Test 4
  Percentage of disease control OV A or B (single component): 86%
[8]
  Percentage of disease control OV A or B (single component): 92%
[5]; Test 2, B alone 4 ppm
  Percentage of disease control B: 29%
[5]; Test 2, B alone 10 ppm
  Percentage of disease control B: 49%
[5]; Test 2, B alone 20 ppm
  Percentage of disease control B: 87%
[5]; Test 2, B alone 40 ppm
  Percentage of disease control B: 83%
[5]; Test 2, B alone 100 ppm
  Percentage of disease control B: 70%
[5]; Test 3, B alone 100 ppm
  Percentage of disease control B: 71%
[5]; Test 4, B alone 100 ppm
  Percentage of disease control B: 71%
[1]; 37.5 ppm, 24 hpt
  PR1 gene activation OV A or B (single component): 32.19 n-fold
[1]; 37.5 ppm, 48 hpt
  PR1 gene activation OV A or B (single component): 72.31 n-fold

## Cc1ncc(C[n+]2csc(CCO)c2C)c(N)n1 [Vitamin B1, vitamin B1]
[1]; 8000 ppm, 24 hpt
  PR1 gene activation OV A or B (single component): 8.35 n-fold
[2]; 8000 ppm, 24 hpt
  PDF1.2 gene activation OV A or B (single component): 231.82 n-fold
[2]; 8000 ppm, 48 hpt
  PDF1.2 gene activation OV A or B (single component): 319.68 n-fold

## Cc1ccc(NC(=O)c2snnc2C)cc1Cl [Tiadinil, tiadinil]
[5]; Test 3, B alone 100 ppm
  Percentage of disease control B: 80%
[2]; 45 ppm, 24 hpt
  PDF1.2 gene activation OV A or B (single component): 189.33 n-fold
[6]; [11]
  Percentage of disease control OV A or B (single component): 0%

## CC/C=C\CC1C(=O)CCC1CC(=O)OC (centres unmarked) [Methyl jasmonate, methyl jasmonate]
[1]; 600 ppm, 24 hpt
  PR1 gene activation OV A or B (single component): 1.10 n-fold
[1]; 600 ppm, 48 hpt
  PR1 gene activation OV A or B (single component): 36.36 n-fold
[2]; 600 ppm, 24 hpt
  PDF1.2 gene activation OV A or B (single component): 6.93 n-fold

## O=S1(=O)N=C(OCc2snc(Cl)c2Cl)c2ccccc21 [Dichlobentiazox]
[3]; 100 ppm
  Percentage of disease control OV A or B (single component): 0%
[3]; in vivo
  Percentage of disease control B: 0%
[6]; [9]
  Percentage of disease control OV A or B (single component): 0%
[7]; [10]
  Percentage of disease control B: 53%

## N#Cc1ccccc1NC(=O)c1snc(Cl)c1Cl [Isotianil, isotianil]
[5]; Test 3, B alone 100 ppm
  Percentage of disease control B: 77%
[2]; 30 ppm, 24 hpt
  PDF1.2 gene activation OV A or B (single component): 18.22 n-fold
[2]; 30 ppm, 48 hpt
  PDF1.2 gene activation OV A or B (single component): 57.21 n-fold
[6]; [11]
  Percentage of disease control OV A or B (single component): 10%
[7]; Combinations with Carrageenan
  Percentage of disease control B: 20%
[7]; [10]
  Percentage of disease control B: 20%
[7]; Combinations with Laminarin
  Percentage of disease control B: 20%
